Measurements from patent US11066419B2, “1H-pyrrole-2,5-dione compounds and methods of using same” (Frequency Therapeutics, Inc., priority 2016, dated 2021).

Columns and labels:
Lgr5-positive cells = assay: Expansion of Lgr5-positive cells (cochlear stem cell expansion, 3D Matrigel culture, flow cytometry for Lgr5-GFP); assay type: cell-based, mouse; settings: for EC50: Mus musculus, 240 h, Lgr5-positive cell expansion, cochlear cells of neonatal Lgr5-EGFP-IRES-Cre-ER mice, 10 days in culture, read-out: Potency; for % of Cells: percentage of Lgr5-GFP-positive cells after 10 days (D10) in culture, flow cytometer
Experimental: Lgr5-EGFP-IRES-Cre-ER mice (Barker et al., 2007) (http://jaxmice.jax.org/strain/008875.html) are used to analyze the effects of small molecules on cochlear stem cell expansion.
Isolation of stem cells from the inner ear: All animal studies are conducted under an approved institutional protocol according to National Institutes of Health guidelines. For experiments with neonatal mice (postnatal days 1-3), the cochleae are dissected in HBSS and the organ of Corti are separated from the stria vascularis and the modiolus. The organs of Corti are then treated with Cell Recovery Solution (Corning) for 1 h to separate cochlear epithelium from the underlying mesenchyme. Epithelia are then collected and treated with TrypLE (Life Technologies) for 15-20 minutes at 37° C. Single cells obtained by mechanical trituration are filtered (40 μm) and suspended in Matrigel (Corning) for 3D culture.
Cells are cultured in a 1:1 mixture of DMEM and F12, supplemented with Glutamax (GIBCO), N2, B27 (Invitrogen), EGF (50 ng/ml; Chemicon), bFGF (50 ng/ml; Chemicon), IGF1 (50 ng/ml; Chemicon) and the composition provided herein. Media are changed every other day.
Lgr5-positive cells are quantified after 10 days (D10) in culture in multiple conditions. Cell colonies are dissociated into single cells using TrypLE (Gibco). The cells are then stained with propidium iodide (PI) and are analyzed using a flow cytometer for Lgr5-GFP expression. The number of GFP-positive cells and the percentage of GFP-positive cells are quantified.

recombinant human GSK3β = recombinant human GSK3β (Homo sapiens, UniProt P49841); assay: In vitro enzymatic assay for inhibition of GSK3β (Kinase-Glo Max luminescence); assay type: biochemical; settings: 10 uM ATP, 0.1 mg/ml GSKtide, 30° C. 40 minutes, read-out: Potency Beta
Experimental: (§1) Enzymatic activities using recombinant human GSK3 using an in vitro enzymatic assay for inhibition GSK3α and GSK3β.
(§2) The assay was performed using Kinase-Glo Max luminescence kinase assay kit (Promega). It measures kinase activity by quantitating the amount of ATP remaining in solution following a kinase reaction. The luminescent signal from the assay is correlated with the amount of ATP present and is inversely correlated with the amount of kinase activity. The compounds were diluted in 10% DMSO and 5 μl of the dilution was added to a 50 μl reaction so that the final concentration of DMSO is 1% in all of reactions. The enzymatic reactions were conducted at 30° C. for 40 minutes. The 50 μl reaction mixture contains 40 mM Tris, pH 7.4, 10 mM MgCl2, 0.1 mg/ml BSA, 2 mM DTT, 0.1 mg/ml GSKtide substrate, 10 uM ATP and GSK3. After the enzymatic reaction, 50 μl of Kinase-Glo Max Luminescence kinase assay solution (Promega) was added to each reaction and incubate the plate for 15 minutes at room temperature. Luminescence signal was measured using a BioTek Synergy 2 microplate reader.
(§3) Kinase activity assays were performed in duplicate at each concentration. The luminescence data were analyzed using the computer software, Graphpad Prism. The difference between luminescence intensities in the absence of Kinase (Lut) and in the presence of Kinase (Luc) was defined as 100% activity (Lut−Luc). Using luminescence signal (Lu) in the presence of the compound, % activity was calculated as: % activity={(Lut−Lu)/(Lut−Luc)}×100%, where Lu=the luminescence intensity in the presence of the compound (all percent activities below zero were shown zero in the table).
(§4) The values of % activity versus a series of compound concentrations were then plotted using non-linear regression analysis of Sigmoidal dose-response curve generated with the equation Y=B+(T−B)/1+10((Log EC50−X)×Hill Slope), where Y=percent activity, B=minimum percent activity, T=maximum percent activity, X=logarithm of compound and Hill Slope=slope factor or Hill coefficient. The IC50 value was determined by the concentration causing a half-maximal percent activity.

recombinant human GSK3α = recombinant human GSK3α (Homo sapiens, UniProt P49840); assay: In vitro enzymatic assay for inhibition of GSK3α (Kinase-Glo Max luminescence); assay type: biochemical; settings: 10 uM ATP, 0.1 mg/ml GSKtide, 30° C. 40 minutes, read-out: Potency Alpha
Experimental: as §1, §2, §3, §4

Chain of recombinant human GSK3α (P49840 whole entry): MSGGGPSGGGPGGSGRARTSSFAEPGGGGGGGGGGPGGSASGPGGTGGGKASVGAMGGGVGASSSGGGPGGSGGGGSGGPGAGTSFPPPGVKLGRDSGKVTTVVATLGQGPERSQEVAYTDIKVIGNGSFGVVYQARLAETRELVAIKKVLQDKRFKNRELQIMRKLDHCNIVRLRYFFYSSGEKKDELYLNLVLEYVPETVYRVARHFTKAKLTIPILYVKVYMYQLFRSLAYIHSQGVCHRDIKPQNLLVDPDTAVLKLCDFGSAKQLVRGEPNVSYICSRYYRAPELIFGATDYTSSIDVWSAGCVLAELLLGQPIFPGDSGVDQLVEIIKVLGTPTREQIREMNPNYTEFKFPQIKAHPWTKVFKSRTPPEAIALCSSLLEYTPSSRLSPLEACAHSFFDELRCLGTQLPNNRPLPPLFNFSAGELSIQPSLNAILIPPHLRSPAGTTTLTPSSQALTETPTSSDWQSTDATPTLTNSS
Chain of recombinant human GSK3β (P49841 whole entry): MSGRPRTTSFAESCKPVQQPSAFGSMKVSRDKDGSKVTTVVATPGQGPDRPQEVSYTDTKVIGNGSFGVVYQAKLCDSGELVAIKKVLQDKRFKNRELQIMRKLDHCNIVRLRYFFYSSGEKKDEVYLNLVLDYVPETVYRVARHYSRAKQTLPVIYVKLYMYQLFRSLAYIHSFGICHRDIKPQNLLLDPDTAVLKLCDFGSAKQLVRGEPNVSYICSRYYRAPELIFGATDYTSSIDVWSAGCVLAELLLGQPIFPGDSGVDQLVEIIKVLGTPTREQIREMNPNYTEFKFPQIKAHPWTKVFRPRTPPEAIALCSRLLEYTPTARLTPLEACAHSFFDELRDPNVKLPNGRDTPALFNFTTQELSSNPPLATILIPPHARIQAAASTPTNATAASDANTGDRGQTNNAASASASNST

Row | Structure (SMILES) | EC50 (Lgr5-positive cells) | % of Cells (Lgr5-positive cells) | IC50 (recombinant human GSK3β) | IC50 (recombinant human GSK3α)
1 | O=C1NC(=O)C(c2cnc3ccccn23)=C1c1cn2c3c(cc(C(F)(F)F)cc13)CN(C(=O)N1CCCCC1)CC2 [Compound I-1] | 1 to 100 nM | +++ (“+++” indicates greater than about 11%) | 1 to 10 nM | 1 to 10 nM
2 | N#Cc1cc2c3c(c1)c(C1=C(c4cnc5ccccn45)C(=O)NC1=O)cn3CCN(C(=O)N1CCCCC1)C2 [Compound I-2] | 1 to 100 nM | +++ (“+++” indicates greater than about 11%) | 1 to 10 nM | 1 to 10 nM
3 | C#Cc1cc2c3c(c1)c(C1=C(c4cnc5ccccn45)C(=O)NC1=O)cn3CCN(C(=O)N1CCCCC1)C2 [Compound I-3] | 1 to 100 nM | +++ (“+++” indicates greater than about 11%) | 1 to 10 nM | 1 to 10 nM
4 | Nc1cc2c3c(c1)c(C1=C(c4cnc5ccccn45)C(=O)NC1=O)cn3CCN(C(=O)N1CCCCC1)C2 [Compound I-4] | 100 to 1000 nM | +++ (“+++” indicates greater than about 11%) | 1 to 10 nM | 1 to 10 nM
5 | O=C1NC(=O)C(c2cnc3ccccn23)=C1c1cn2c3c(cc(F)cc13)CN(C(=O)N1CCC(CO)CC1)CC2 [Compound I-6] | 1 to 100 nM | +++ (“+++” indicates greater than about 11%) | 1 to 10 nM | 1 to 10 nM
6 | O=C1NC(=O)C(c2cnc3ccccn23)=C1c1cn2c3c(cc(F)cc13)CN(C(=O)N1CCC(F)(F)CC1)CC2 [Compound I-7] | 1 to 100 nM | ++ (“++” indicates about 6-10%) | 1 to 10 nM | 1 to 10 nM
7 | O=C1NC(=O)C(c2cnc3ccccn23)=C1c1cn2c3c(cc(F)cc13)CN(C(=O)N1CC3CCC(C1)O3)CC2 [Compound I-8] | 1 to 100 nM | +++ (“+++” indicates greater than about 11%) | 1 to 10 nM | 1 to 10 nM
8 | O=C1NC(=O)C(c2cn3c4c(cc(F)cc24)CN(C(=O)N2CCCCC2)CC3)=C1c1noc2ccccc12 [Compound I-9] | > 1000 nM | +++ (“+++” indicates greater than about 11%) | 1 to 10 nM | 10 to 100 nM
9 | CC(=O)Nc1cc2c3c(c1)c(C1=C(c4cnc5ccccn45)C(=O)NC1=O)cn3CCN(C(=O)N1CCCCC1)C2 [Compound I-10] | > 1000 nM | + (“+” indicates about 0-5%) | 1 to 10 nM | 1 to 10 nM
10 | O=C1NC(=O)C(c2cnc3ccccn23)=C1c1cn2c3c(cc(F)cc13)CN(C(=O)N1CCCC(F)(F)C1)CC2 [Compound I-12] | 1 to 100 nM | +++ (“+++” indicates greater than about 11%) | 1 to 10 nM | 1 to 10 nM
11 | O=C1NC(=O)C(c2cnc3ccccn23)=C1c1cn2c3c(cc(F)cc13)CN(C(=O)N1C[C@H]3C[C@@H]1CN3)CC2 [Compound I-13] | > 1000 nM | +++ (“+++” indicates greater than about 11%) | 1 to 10 nM | 1 to 10 nM
12 | N#Cc1cc2c3c(c1)c(C1=C(c4cnc5ccccn45)C(=O)NC1=O)cn3CCN(C(=O)N1CC3CCC(C1)O3)C2 [Compound I-14] | > 1000 nM | + (“+” indicates about 0-5%) | 1 to 10 nM | 1 to 10 nM
13 | N#Cc1cc2c3c(c1)c(C1=C(c4cnc5ccccn45)C(=O)NC1=O)cn3CCN(C(=O)N1CCCC(F)(F)C1)C2 [Compound I-15] | > 1000 nM | ++ (“++” indicates about 6-10%) | 1 to 10 nM | 1 to 10 nM
14 | N#Cc1cc2c3c(c1)c(C1=C(c4cnc5ccccn45)C(=O)NC1=O)cn3CCN(C(=O)N1CCC(F)(F)CC1)C2 [Compound I-16] | 100 to 1000 nM | +++ (“+++” indicates greater than about 11%) | 1 to 10 nM | 1 to 10 nM
15 | O=C1NC(=O)C(c2cnc3ccccn23)=C1c1cn2c3c(cc(C(F)(F)F)cc13)CN(C(=O)N1CCC(F)(F)CC1)CC2 [Compound I-17] | > 1000 nM | + (“+” indicates about 0-5%) | 1 to 10 nM | 1 to 10 nM
16 | O=C1NC(=O)C(c2cnc3ccccn23)=C1c1cn2c3c(cc(C(F)(F)F)cc13)CN(C(=O)N1CC3CCC(C1)O3)CC2 [Compound I-18] |  |  | 1 to 10 nM | 1 to 10 nM
17 | NCC1CCN(C(=O)N2CCn3cc(C4=C(c5cnc6ccccn56)C(=O)NC4=O)c4cc(F)cc(c43)C2)CC1 [Compound I-19] | > 1000 nM | +++ (“+++” indicates greater than about 11%) | 1 to 10 nM | 1 to 10 nM
18 | O=C1NC(=O)C(c2cnc3ccccn23)=C1c1cn2c3c(cc(C(F)(F)F)cc13)CN(C(=O)N1CCC(CO)CC1)CC2 [Compound I-20] | > 1000 nM | +++ (“+++” indicates greater than about 11%) | 1 to 10 nM | 1 to 10 nM
19 | O=C1NC(=O)C(c2cnc3ccccn23)=C1c1cn2c3c(cc(F)cc13)CN(C(=O)N1CCC(F)(F)C(O)C1)CC2 (centres unmarked) [Compound I-25] |  |  | 1 to 10 nM | 1 to 10 nM
20 | O=C1NC(=O)C(c2nnc3ccccn23)=C1c1cn2c3c(cc(F)cc13)CN(C(=O)N1CCCCC1)CC2 [Compound I-28] |  |  | 1 to 10 nM | 1 to 10 nM
21 | CN(C)C1CCN(C(=O)N2CCn3cc(C4=C(c5cnc6ccccn56)C(=O)NC4=O)c4cc(F)cc(c43)C2)CC1 [Compound I-36] |  |  | 1 to 10 nM | 1 to 10 nM
22 | CN1CCC(CN(C)C(=O)N2CCn3cc(C4=C(c5cnc6ccccn56)C(=O)NC4=O)c4cc(F)cc(c43)C2)CC1 [Compound I-39] |  |  | 1 to 10 nM | 1 to 10 nM
23 | CN1CCC2(CC1)CCN(C(=O)N1CCn3cc(C4=C(c5cnc6ccccn56)C(=O)NC4=O)c4cc(F)cc(c43)C1)C2 [Compound I-42] |  |  | 1 to 10 nM | 1 to 10 nM
24 | CN(C)C1CCN(C(=O)N2CCn3cc(C4=C(c5cnc6ccccn56)C(=O)NC4=O)c4cc(C#N)cc(c43)C2)CC1 [Compound I-45] |  |  | 1 to 10 nM | 1 to 10 nM
25 | CN1CCC(CN(C)C(=O)N2CCn3cc(C4=C(c5cnc6ccccn56)C(=O)NC4=O)c4cc(C#N)cc(c43)C2)CC1 [Compound I-46] |  |  | 1 to 10 nM | 1 to 10 nM
26 | CN1CCC2(CC1)CCN(C(=O)N1CCn3cc(C4=C(c5cnc6ccccn56)C(=O)NC4=O)c4cc(C#N)cc(c43)C1)C2 [Compound I-47] |  |  | 1 to 10 nM | 1 to 10 nM
